Values of other authors as cited in paper PMC4546427, “Stereoselective Regulation of P-gp Activity by Clausenamide Enantiomers in Caco-2, KB/KBv and Brain Microvessel Endothelial Cells” (PLoS ONE, 2015).
Like-named read-outs stand apart in the source and are kept apart here.

System: P-gp ATPase
Design: method as in PMID 9300798
Details: cited from earlier work

Compound: CC(=O)[C@H]1CC[C@H]2[C@@H]3CCC4=CC(=O)CC[C@]4(C)[C@H]3CC[C@]12C [progesterone]
- Effect on P-gp ATPase activity (concentrations above 25 μmol/L): inhibited
- Effect on P-gp ATPase activity (low concentration 6.3 μmol/L): stimulated
